According to patent US20200399262A1, “COMPOUNDS FOR INHIBITING PROTEIN DEGRADATION AND METHODS OF USE THEREOF IN THE TREATMENT OF CANCER” (PI Therapeutics Ltd, priority 2018, published 2020):
pEC50: −log10 of the molar value. Values after ≈ are worked out from the molar mass of the structure shown.

What was measured:
proteasome = experiment: Proteasome activity (Proteasome-GLO) in intact MM1.S cells; type: cell-based; conditions: 3 hr at 37° C.
Procedure: Proteasome activity was measured in intact MM1.S cells as cleavage of peptide substrates, specific for Trypsin like (TL), Chemotrypsin like (CTL) and Caspase like (PL) activities of the proteasome following treatment with Compound B1, Compound AA or Bortezomib (BTZ) at ˜EC50 concentrations for 3 hr at 37° C. BTZ was used as positive control.
Proteasome activity. The assay was performed only when cell viability is ≥90%. Cells were seeded in 96-well white clear bottom plates and treated with diluted compounds or vehicle control in triplicates for 3 hours at various concentrations. Catalytic activity was measured using three luminogenic proteasome substrates: Suc-LLVY-aminoluciferin (Succinyl-leucine-leucine-valine-tyrosine-aminoluciferin), Z-LRR-aminoluciferin (Z-leucine-arginine-arginine-aminoluciferin) and Z-nLPnLD-aminoluciferin (Z-norleucine-proline-norleucine-aspartate-aminoluciferin) for the chymotrypsin-like, trypsin-like and caspase-like activities, respectively (Proteasome-GLO, Promega). The emitted light was proportional to the proteasomal activity. Catalytic activity was calculated as the percent activity from control vehicle-treated cells.
MM1.S cells, were treated with Compound B1, Compound AA or Bortezomib (BTZ) at various concentrations for 3 hr at 37° C. […] Proteasome activity was measured by cleavage of proteasome-specific peptide substrates for TL, CTL and PL activities.

MM1.S = experiment: Cell viability, ATPlite 1-step, MM cell lines; type: cell-based; conditions: Homo sapiens; MM1.S MM cell line; 48 hours; read-out: Compound EC50
Procedure: (§1) Cell Viability. The assay was performed only when cell viability was ≥90%. Cells were seeded in 96-well white clear bottom plates at concentration of 100,000 cells/mL and treated with serially diluted compounds or vehicle (DMSO) control in triplicates for 48 hours (h). Cell viability was determined using the ATPlite 1-step assay system (PerkinElmer). The method was based on the production of light caused by the reaction of ATP, which was a marker for cell viability. […] were added to the plates which were read in a plate reader for luminescence. The emitted light is proportional to the ATP concentration. Viability was calculated as the percent of viable cells from control vehicle-treated cells. EC50 was calculated using Prism software.
(§2) Potency of compounds were assessed by viability assay.

U266 = experiment: Cell viability, ATPlite 1-step, MM cell lines; type: cell-based; conditions: Homo sapiens, U-266; U266 MM cell line; 48 hours; read-out: Compound EC50
Procedure: as §1, §2

MM cell lines = experiment: Cell viability, ATPlite 1-step, MM cell lines; type: cell-based; conditions: cell line printed N/A; read-out: Compound EC50
Procedure: as §1, §2

[1] = test system: poly-ubiquitinated proteins; experiment: Western blot of poly-ubiquitinated proteins in MM1.S cells; type: cell-based; conditions: SDS-PAGE immunoblot
Procedure: MM1.S cells were treated with Compound B1 (FIG. 1A), Compound AA (FIG. 1B) and Compound E1 (FIG. 1C) for indicated periods of time. Following treatment, the cells were harvested, and the lysates resolved on SDS-PAGE. Transferred membranes were blotted with antibodies as indicated. Actin was used as loading control.
Protein analysis by Western blot. At the end of treatment period, the cells were lysed with M-PER mammalian protein extraction reagent (ThermoFisher Scientific) supplemented with protease inhibitors. Equal protein amounts were resolved on pre-cast SDS-PAGE (ThermoFisher Scientific) and transferred to a PVDF membrane. The membrane was immunoblotted with antibodies as indicated. The following antibodies were used: Ub MAb (SC-8017, Santa-Cruz), ATF4, ATF6, phospho JNK, JNK (Cell signaling); eIF2alpha, phospho eIF2alpha (Novus).

[2] = Kinetic solubility by differential UV absorbance; type: physicochemical; conditions: aqueous buffer, kinetic from dmso stock; DMSO stock diluted in PBS, OD before and after centrifugation
Procedure: FIG. 3A-3B depict the kinetic solubility of Compound B1 (FIG. 3A) and Compound E1 (FIG. 3B) as measured by differential UV absorbance of the compounds, as performed before and after centrifugation. Soluble concentrations were determined when OD was equivalent between centrifuged and non-centrifuged fractions. Compounds were dissolved from co-solvent stock, and further serially 2-fold diluted in PBS. OD was measured at the maximal absorbance for each compound before (BC) and after (AC) centrifugation, using Spark 20M, Tecan.
Kinetic solubility quantification. Compound B1/Compound E1 DMSO stock was diluted with PBS by serial 2-fold dilutions. Then, the samples were centrifuged for 5 minutes at 17,000 g to precipitate any insoluble compound. Each sample was tested at a single wave length (Compound B1 at […]; Compound E1 at […]) in duplicate before and after centrifugation to assess solubility of the compound. Soluble concentrations were determined when optical density (OD) was equivalent between centrifuged and non-centrifuged fractions.
Kinetic solubility of all Compounds was determined by differential UV absorbance before and after centrifugation. […] Solubility concentration was determined when OD was equivalent between centrifuged and non-centrifuged fractions (FIG. 3A-3B).

pEC50 (MM1.S) | pEC50 (U266) | Structure (SMILES) | further results
– | > 6.52 | N[C@@H](Cc1ccccn1)C(=O)N1C/C(=C\c2ccc(Cl)c(Cl)c2)C(=O)/C(=C/c2ccc(Cl)c(Cl)c2)C1 [Compound B18] | –
– | > 6.52 | N[C@@H](Cc1cccc(O)c1)C(=O)N1C/C(=C\c2ccc(Cl)c(Cl)c2)C(=O)/C(=C/c2ccc(Cl)c(Cl)c2)C1 [Compound B19] | –
– | > 6.52 | O=C1/C(=C/c2ccc(Cl)c(Cl)c2)CN(C(=O)C2COCCN2)C/C1=C\c1ccc(Cl)c(Cl)c1 (centres unmarked) [Compound B20] | –
– | 6.00 to 6.52 | N[C@@H](Cc1ccccc1)C(=O)N1C/C(=C\c2ccccc2)C(=O)/C(=C/c2ccc(Cl)c(Cl)c2)C1 [Compound B21] | –
– | > 6.52 | N[C@@H](Cc1ccccc1)C(=O)N1C/C(=C\c2ccc(Cl)c(Cl)c2)C(=O)/C(=C/c2cc(Cl)ccc2Cl)C1 [Compound B22] | –
> 6.52 | – | CC(=O)NC1(C(=O)N2C/C(=C\c3ccc(Cl)c(Cl)c3)C(=O)/C(=C/c3ccc(Cl)c(Cl)c3)C2)CC1 [Compound B23] | –
– | 6.00 to 6.52 | CNC(=O)CCC(=O)N1C/C(=C\c2ccc(Cl)c(Cl)c2)C(=O)/C(=C/c2ccc(Cl)c(Cl)c2)C1 [Compound B24] | –
– | > 6.52 | CC(=O)NCC(=O)N1C/C(=C\c2ccc(Cl)c(Cl)c2)C(=O)/C(=C/c2ccc(Cl)c(Cl)c2)C1 [Compound B25] | –
≤ 6.00 | – | O=C1/C(=C/c2ccc(Cl)c(Cl)c2)CN(C(=O)C2(Nc3ccccc3)CC2)CC1Cc1ccc(Cl)c(Cl)c1 (centres unmarked) [Compound B26] | –
– | ≤ 6.00 | CC(=O)NCCC(=O)N1C/C(=C\c2ccc(Cl)c(Cl)c2)C(=O)C(Cc2ccc(Cl)c(Cl)c2)C1 (centres unmarked) [Compound B27] | –
– | > 6.52 | CC(C)C(Nc1ccccc1)C(=O)N1C/C(=C\c2ccc(Cl)c(Cl)c2)C(=O)/C(=C/c2ccc(Cl)c(Cl)c2)C1 (centres unmarked) [Compound B28] | –
– | > 6.52 | CNC(=O)CC(=O)N1C/C(=C\c2ccc(Cl)c(Cl)c2)C(=O)/C(=C/c2ccc(Cl)c(Cl)c2)C1 [Compound B30] | –
– | > 6.52 | CN(C)C(Cc1ccccc1)C(=O)N1C/C(=C\c2ccc(Cl)c(Cl)c2)C(=O)/C(=C/c2ccc(Cl)c(Cl)c2)C1 (centres unmarked) [Compound B32] | –
> 6.52 | – | CN(C)CCS(=O)(=O)N1C/C(=C\c2ccc(C#N)cc2)C(=O)/C(=C/c2ccc(C#N)cc2)C1 [Compound BA] | –
> 6.52 | – | CN(C)CCCS(=O)(=O)N1C/C(=C\c2ccc(F)c(C(F)(F)F)c2)C(=O)/C(=C/c2ccc(F)c(C(F)(F)F)c2)C1 [Compound CA] | –
– | > 6.52 | COCCS(=O)(=O)N1C/C(=C\c2ccc(Cl)c(Cl)c2)C(=O)/C(=C/c2ccc(Cl)c(Cl)c2)C1 [Compound D1] | –
> 6.52 | – | Cc1noc(C)c1/C=C1\CN(S(=O)(=O)CCCN(C)C)C/C(=C\c2c(C)noc2C)C1=O [Compound E1] | accumulation of poly-ubiquitinated proteins [1]: observable accumulation of poly-ubiquitinated proteins; solubility kinetic [2]: 2500 µM (≈ 1160 µg/mL)
> 6.52 | – | CN(C)CCCS(=O)(=O)N1C/C(=C\c2ccc(C#N)cc2)C(=O)C(Cc2ccc(C#N)cc2)C1 (centres unmarked) [Compound F1] | –

Continued, compound first:

Structure (SMILES) | pEC50 (MM1.S) | pEC50 (U266) | further results
CC(C)C[C@H](NC(=O)[C@H](Cc1ccccc1)NC(=O)c1cnccn1)B(O)O [Bortezomib, reference compound] | – | – | inhibition of the enzymatic functions of the proteasome (TL, CTL and PL activities) (proteasome): specifically inhibits CTL activity
CN(CCCN=[N+]=[N-])CC(=O)NCC(=O)N1C/C(=C\c2ccc(C#N)cc2)C(=O)/C(=C/c2ccc(C#N)cc2)C1 [Compound B2] | > 6.52 | – | –
C#CCN(C)CC(=O)NCC(=O)N1C/C(=C\c2ccc(C#N)cc2)C(=O)/C(=C/c2ccc(C#N)cc2)C1 [Compound B3] | > 6.52 | > 6.52 | –
CC(=O)NCC(=O)N1C/C(=C\c2ccc(F)c(C#N)c2)C(=O)/C(=C/c2ccc(F)c(C#N)c2)C1 [Compound B5, N-{2-[(3E,5E)-3,5-bis[(3-cyano-4-fluorophenyl)methylidene]-4-oxopiperidin-1-yl]-2-oxoethyl}acetamide] | – | > 6.52 | –
CC(=O)NCC(=O)N1C/C(=C\c2ccc(C#N)cc2)C(=O)/C(=C/c2ccc(C#N)cc2)C1 [Compound B6, N-{2-[(3E,5E)-3,5-bis[(4-cyanophenyl)methylidene]-4-oxopiperidin-1-yl]-2-oxoethyl}acetamide] | > 6.52 | – | –
CC(=O)N[C@H](CO)C(=O)N1C/C(=C\c2ccc(C#N)cc2)C(=O)/C(=C/c2ccc(C#N)cc2)C1 [Compound B7, N-[(2R)-1-[(3E,5E)-3,5-bis[(4-cyanophenyl)methylidene]-4-oxopiperidin-1-yl]-3-hydroxy-1-oxopropan-2-yl]acetamide] | – | 6.00 to 6.52 | –
N#Cc1ccc(/C=C2\CN(C(=O)CNC(=O)CO)C/C(=C\c3ccc(C#N)cc3)C2=O)cc1 [Compound B8] | > 6.52 | – | –
O=C1/C(=C/c2ccc(Cl)c(Cl)c2)CN(C(=O)CNc2ccccc2)C/C1=C\c1ccc(Cl)c(Cl)c1 [Compound B9] | – | ≤ 6.00 | –
CNCC(=O)N1C/C(=C\c2ccc(Cl)c(Cl)c2)C(=O)/C(=C/c2ccc(Cl)c(Cl)c2)C1 [Compound B10] | – | ≤ 6.00 | –
COCCNCC(=O)N1C/C(=C\c2ccc(Cl)c(Cl)c2)C(=O)/C(=C/c2ccc(Cl)c(Cl)c2)C1 [Compound B11] | – | ≤ 6.00 | –
O=C1/C(=C/c2ccc(Cl)c(Cl)c2)CN(C(=O)CCc2ccccc2)C/C1=C\c1ccc(Cl)c(Cl)c1 [Compound B12] | – | 6.00 to 6.52 | –
CC(=O)NCCC(=O)N1C/C(=C\c2ccc(Cl)c(Cl)c2)C(=O)/C(=C/c2ccc(Cl)c(Cl)c2)C1 [Compound B13] | > 6.52 | – | –
O=C1/C(=C/c2ccc(Cl)c(Cl)c2)CN(C(=O)C(O)Cc2ccccc2)C/C1=C\c1ccc(Cl)c(Cl)c1 (centres unmarked) [Compound B14] | – | 6.00 to 6.52 | –
O=C1/C(=C/c2ccc(Cl)c(Cl)c2)CN(C(=O)C(Cc2ccccc2)C(=O)O)C/C1=C\c1ccc(Cl)c(Cl)c1 (centres unmarked) [Compound B15] | – | ≤ 6.00 | –
O=C1/C(=C/c2ccc(Cl)c(Cl)c2)CN(C(=O)C2(Nc3ccccc3)CC2)C/C1=C\c1ccc(Cl)c(Cl)c1 [Compound B16] | > 6.52 | – | –
COC(Cc1ccccc1)C(=O)N1C/C(=C\c2ccc(Cl)c(Cl)c2)C(=O)/C(=C/c2ccc(Cl)c(Cl)c2)C1 (centres unmarked) [Compound B17] | – | > 6.52 | –
CC(=O)N(C)CCC(=O)N1C/C(=C\c2ccc(Cl)c(Cl)c2)C(=O)/C(=C/c2ccc(Cl)c(Cl)c2)C1 [Compound B29] | – | – | pEC50 (MM cell lines): ≤ 6.00
